For data set [1] the following is noted: background statement, no test described; cited from earlier work.
Data set [2] has as its target T1, histamine; longitudinal muscle from the intact ileum of guinea-pigs (Cavia porcellus, UniProt P31389).
T1 construct: The longitudinal muscle was isolated from the intact ileum of guinea-pigs; from tissue; host or cells: longitudinal muscle of the ileum of guinea-pigs (Harley, male 250-400 g)
Kind of data set: In vitro antihistaminic activity: histamine concentration-response curves, isolated guinea-pig ileum longitudinal muscle (Schild plot). It counts as cell-based. As to conditions: negative log of the concentration of antagonist which shifts the control histamine concentration-response curve 2X to the right, one hour incubation with test compound, 60 min. The protocol: A.Invitro antihistaminic activity: The longitudinal muscle was isolated from the intact ileum of guinea-pigs (Harley, male 250-400 g) and placed in an organ bath under 300 mg tension. After one hour of equilibration, cumulative concentration-response curves (Van Rossum, J. M., Arch. Int. Pharmacodyn. Ther. 143 299-330, 1963) to histamine wee obtained. Following washing, the tissues were incubated for one hour with the test compound and then a second histamine concentration-response curve was run. Shifts to the right of the agonist concentration-response curve produced by the antagonists were used to construct Schild plots (Arunlakshana, O. and Schild, H. O., Br. J. Pharmacol: 14, 48-58, 1959). Regression of Log (dr-1) on Log/B/, where dr is an equiactive response in the presence and absence of antagonist and /B/ is the molar concentration of antagonist, allowed an estimate of pA2, i.e. the negative log of the concentration of antagonist which shifts the control histamine concentration-response curve 2X to the right.
The antihistaminic activities of compounds of the present invention are detailed in table A below.

The conditions of data set [3]: cited from earlier work.
The conditions of data set [4]: cited from earlier work. The source holds these as a separate data set.

The structures appear in SMILES notation. Where two headings read alike, the source gives them in different places.

The text below walks through data of patent US4690933A, “Pyridylvinyl-1H tetrazole having antihistamine activity” (priority 1984, dated 1987).

What is called pA2 is the negative logarithm of the molar antagonist concentration that doubles the agonist concentration needed for the same response.

T1 sequence (P31389 whole entry): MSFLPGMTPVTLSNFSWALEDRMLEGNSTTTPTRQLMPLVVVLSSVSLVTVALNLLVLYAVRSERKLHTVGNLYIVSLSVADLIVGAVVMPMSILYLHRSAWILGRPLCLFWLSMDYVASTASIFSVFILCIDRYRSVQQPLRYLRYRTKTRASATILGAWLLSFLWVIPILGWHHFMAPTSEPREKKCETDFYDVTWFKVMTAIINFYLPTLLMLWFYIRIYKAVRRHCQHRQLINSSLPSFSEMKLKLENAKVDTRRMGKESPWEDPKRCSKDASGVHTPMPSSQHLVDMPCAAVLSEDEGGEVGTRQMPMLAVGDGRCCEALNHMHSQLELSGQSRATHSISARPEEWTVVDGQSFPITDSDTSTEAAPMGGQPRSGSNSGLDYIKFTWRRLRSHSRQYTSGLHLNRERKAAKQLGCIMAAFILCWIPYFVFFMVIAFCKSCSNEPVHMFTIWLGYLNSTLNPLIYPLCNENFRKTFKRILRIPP

For `O=C(O)c1ccc(/C(=C\CN2CCCC2)c2ccccn2)cc1` [(E)-1-(4-carboxyphenyl)-1-(2-pyridyl)-3-pyrrolidinoprop-1-ene], the antihistamine activity entry in data set [1] was “little or no antihistamine activity”.
Consider `O=S(=O)(O)c1cccc(/C(=C/CN2CCCC2)c2ccccc2)c1` [Example 2, (E)-3-(1-phenyl-3-pyrrolidinoprop-1-enyl)-benzenesulphonic Acid], for which the pA2 in data set [2] came out at 7.1.
With `CC(CN1c2ccccc2Sc2ccccc21)N(C)C` (stereo not drawn) [promethazine], the sedation or drowsiness entry in data set [3] (in some patients) is on record as “cause sedation or drowsiness in some patients”.
On to `Cc1ccc(/C(=C\CN2CCCC2)c2cccc(/C=C/c3nnn[nH]3)n2)cc1` [Example 1, 5-(E-6-[3-Pyrrolidino-1-(4-tolyl)prop-1E-enyl]-2-pyridylvinyl)-1H-tetrazole], for which the pA2 in data set [2] turned out to be 8.7.
On the same count and under the same terms, the value for `O=S(=O)(O)c1cccc(C(CCN2CCCC2)c2ccccc2)c1` (stereo not drawn) [Example 3, 3-(1-phenyl-3-pyrrolidinopropyl)benzenesulphonic acid] was 7.3.
In the case of `Cc1ccc(/C(=C\CN2CCCC2)c2ccccn2)cc1` [triprolidine, (E)-1-(4-methylphenyl)-1-(2-pyridyl)-3-pyrrolidinoprop-1-ene], in data set [4], the metabolism in man entry was “metabolized in man to (E)-1-(4-carboxyphenyl)-1-(2-pyridyl)-3-pyrrolidinoprop-1-ene”. In addition, the sedation or drowsiness result in data set [3] (human, in vivo) was “cause sedation or drowsiness in some patients”. The antihistamine activity entry in data set [1] is recorded as “one of the most potent antihistamines available”.
Take `COc1ccc(CN(CCN(C)C)c2ccccn2)cc1` [pyrilamine]: in data set [3] (human, in vivo), the sedation or drowsiness result was “cause sedation or drowsiness in some patients”.
